# Test results from patent publication US20090124633A1, “N-OXIDES OF HETEROCYCLIC SUBSTITUTED BISARYLUREAS FOR TREATING KINASE-MEDIATED DISEASES” (priority 2006, published 2009).
# Tests used:
# [1] = Stability against oxygen in air; type: physicochemical; conditions: dissolved either in DMSO/water or in acetic acid/water, stirred on air for more than a week
# Text: Stability Against Oxygen in Air
# The compounds • 4-{4-[3-(2-[1,2,4]Triazol-1-yl-5-trifluoromethyl-phenyl)-ureido]-phenoxy}-pyridine-2-carboxylic acid methylamide, • 4-{4-[3-(2-[1,2,3]Triazol-1-yl-5-trifluoromethyl-phenyl)-ureido]-phenoxy}-pyridine-2-carboxylic acid methylamide, 525946 • 4-{4-[3-(2-Imidazol-1-yl-5-trifluoromethyl-phenyl)-ureido]-phenoxy}-pyridine-2-carboxylic acid methylamide, and • 1-[4-(Pyridin-4-yloxy)-phenyl]-3-(2-[1,2,4]triazol-1-yl-5-trifluoromethyl-phenyl)-urea, respectively, were dissolved either in DMSO/water or in acetic acid/water and stirred on air for more than a week.
# VGFR2 (KDR) = biological target: T1, VGFR2 (KDR) (Homo sapiens, UniProt P35968); assay: flashplate kinase assay, phosphorylation of Biotin-poly-Glu-Tyr (4:1) by VGFR2 (KDR); type: biochemical
# T1 construct: The catalytic sections of the corresponding tyrosine kinases are preferably expressed as GST fusion proteins; GST
# Procedure: (§1) The biological activity of N-oxide compounds according the invention are tested in one or more standard kinase assay systems as described in the art. Preferably, the compounds according the invention are tested in a kinase assay as described below, or in analogous manner thereof:
# (§2) In this assay the inhibitory action of the compounds according to the invention on the phosphorylation of the substrates Biotin-poly-Glu-Tyr (4:1) by VGFR2 (KDR) or poly-Glu-Tyr (4:1) by Tie-2, respectively, is tested. In the wells of a streptavidin-coated microtiter flashplate, VEGFR2, or a microtiter flashplate, Tie-2, respectively, phosphorylate the substrates in the presence of ATPyS and small amounts of radioactive ^33P-ATP. Phosphorylated substrates bind during enzymatic reaction to the walls of the wells. The phosphorylation reaction is stopped by addition of a stopping reagent, the liquid is removed from the wells and the wells are rinsed. The amount of radioactivity incorporated into the substrate bound to the well is then measured. The reaction is done in presence of different concentrations of the compound and in absence of the compound. The inhibitory action of the compounds according to the invention is determined on the basis of the ratio of radioactivity found in the presence of a compound according to the invention in comparison to the radioactivity found in the enzymatic reaction in the absence of a compound according to the invention. The catalytic sections of the corresponding tyrosine kinases are preferably expressed as GST fusion proteins.
# (§3) 100 μL of the compound to be tested are applied to a well (starting concentration: 1E-3 mol/L in 100% DMSO); the dilution for the determination of the IC 50 values is performed on a BiomekFX robot in 10 steps (range of concentration is 1E-5 to 1E-10 mol/L in the assay, i.e. 1E-5, 1E-6, 3E-7, 1E-7, 3E-8, 1E-8, 3E-9, 1E-9, 3E-10, 1E-10 mol/L).
# Tie-2 = biological target: T2, Tie-2 (Homo sapiens, UniProt Q02763); assay: flashplate kinase assay, phosphorylation of poly-Glu-Tyr (4:1) by Tie-2; type: biochemical; conditions: read-out: TIE2 [IC50]
# T2 construct: The catalytic sections of the corresponding tyrosine kinases are preferably expressed as GST fusion proteins; GST
# Procedure: as §1, §2, §3
# T1 sequence (P35968 834-1162 limits assumed): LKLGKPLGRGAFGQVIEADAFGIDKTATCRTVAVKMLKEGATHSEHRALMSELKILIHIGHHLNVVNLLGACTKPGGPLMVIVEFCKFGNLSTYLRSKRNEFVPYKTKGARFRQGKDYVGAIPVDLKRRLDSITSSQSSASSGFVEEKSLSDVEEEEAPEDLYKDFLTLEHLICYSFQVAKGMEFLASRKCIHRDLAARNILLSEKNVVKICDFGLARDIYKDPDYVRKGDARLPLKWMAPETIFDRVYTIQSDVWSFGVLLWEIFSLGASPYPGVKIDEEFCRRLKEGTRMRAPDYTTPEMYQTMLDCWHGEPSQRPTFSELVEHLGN
# T2 sequence (Q02763 824-1096 limits assumed): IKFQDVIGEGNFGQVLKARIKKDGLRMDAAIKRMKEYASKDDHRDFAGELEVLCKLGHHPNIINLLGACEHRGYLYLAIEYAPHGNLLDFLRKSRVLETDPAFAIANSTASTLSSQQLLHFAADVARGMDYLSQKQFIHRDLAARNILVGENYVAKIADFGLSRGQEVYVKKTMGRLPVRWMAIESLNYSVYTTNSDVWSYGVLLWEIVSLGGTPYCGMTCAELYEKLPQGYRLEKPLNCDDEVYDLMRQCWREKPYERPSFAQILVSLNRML
SMILES,IC50 (VGFR2 (KDR)),IC50 (Tie-2),N-oxide formation on air [1]
"O=C(Nc1ccc(Oc2ccncc2)cc1)Nc1cc(C(F)(F)F)ccc1-n1cncn1 [1-[4-(Pyridin-4-yloxy)-phenyl]-3-(2-[1,2,4]triazol-1-yl-5-trifluoromethyl-phenyl)-urea]",,,No N-oxide formation could be detected
CNC(=O)c1cc(Oc2ccc(NC(=O)Nc3cc(C(F)(F)F)ccc3-n3ccnc3)cc2)ccn1 [4-{4-[3-(2-Imidazol-1-yl-5-trifluoromethyl-phenyl)-ureido]-phenoxy}-pyridine-2-carboxylic acid methylamide],,,No N-oxide formation could be detected
"CNC(=O)c1cc(Oc2ccc(NC(=O)Nc3cc(C(F)(F)F)ccc3-n3ccnn3)cc2)ccn1 [4-{4-[3-(2-[1,2,3]Triazol-1-yl-5-trifluoromethyl-phenyl)-ureido]-phenoxy}-pyridine-2-carboxylic acid methylamide]",,,No N-oxide formation could be detected
"CNC(=O)c1cc(Oc2ccc(NC(=O)Nc3cc(C(F)(F)F)ccc3-n3cncn3)cc2)ccn1 [4-{4-[3-(2-[1,2,4]Triazol-1-yl-5-trifluoromethyl-phenyl)-ureido]-phenoxy}-pyridine-2-carboxylic acid methylamide]",,,No N-oxide formation could be detected
"CNC(=O)c1cc(Oc2ccc(NC(=O)Nc3cc(C(F)(F)F)ccc3-n3ccnn3)cc2)cc[n+]1[O-] [Compound 12, 1-Oxy-4-{4-[3-(2-[1,2,3]triazol-1-yl-5-trifluoromethyl-phenyl)-ureido]-phenoxy}-pyridine-2-carboxylic acid methylamide]",49 nM,30 nM,
"O=C(Nc1ccc(Oc2cc[n+]([O-])cc2)cc1)Nc1cc(C(F)(F)F)ccc1-n1cncn1 [Compound 14, 1-[4-(1-Oxy-pyridin-4-yloxy)-phenyl]-3-(2-[1,2,4]triazol-1-yl-5-trifluoromethyl-phenyl)-urea]",1200 nM,740 nM,

# Second part, led by results:
IC50 (VGFR2 (KDR)),IC50 (Tie-2),SMILES,N-oxide formation on air [1]
14 nM,52 nM,"CNC(=O)c1cc(Oc2ccc(NC(=O)Nc3cc(C(F)(F)F)ccc3-n3cncn3)cc2)cc[n+]1[O-] [Compound 11, 1-Oxy-4-{4-[3-(2-[1,2,4]triazol-1-yl-5-trifluoromethyl-phenyl)-ureido]-phenoxy}-pyridine-2-carboxylic acid methylamide]",
56 nM,49 nM,"CNC(=O)c1cc(Oc2ccc(NC(=O)Nc3cc(C(F)(F)F)ccc3-n3ccnc3)cc2)cc[n+]1[O-] [Compound 13, 4-{4-[3-(2-Imidazol-1-yl-5-trifluoromethyl-phenyl)-ureido]-phenoxy}-1-oxy-pyridine-2-carboxylic acid methylamide]",
